Data published in patent US10450297B2, “Sulfonyl amide derivatives for the treatment of abnormal cell growth” (Pfizer, Inc., priority 2007, dated 2019).

Molecular target: FAK kinase (catalytic construct FAK(410-689)) (Homo sapiens (Human), UniProt Q05397)
Assay: FAKcd kinase ELISA (inhibition of poly-glu-tyr phosphorylation by FAK(410-689))
Assay type: biochemical
Settings: 50 μM final ATP

Chain of FAK kinase (catalytic construct FAK(410-689)) (Q05397 410-689): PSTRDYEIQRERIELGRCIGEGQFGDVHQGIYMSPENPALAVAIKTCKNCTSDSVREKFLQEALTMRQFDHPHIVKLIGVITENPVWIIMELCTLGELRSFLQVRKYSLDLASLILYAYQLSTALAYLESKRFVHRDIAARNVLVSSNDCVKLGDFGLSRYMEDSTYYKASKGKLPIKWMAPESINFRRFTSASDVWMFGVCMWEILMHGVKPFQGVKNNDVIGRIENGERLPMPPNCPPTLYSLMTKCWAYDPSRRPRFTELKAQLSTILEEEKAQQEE

| SMILES | IC50 [nM] |
| --- | --- |
| CN(c1ncccc1CNc1nc(Nc2ccc(C(=O)N3CC(F)C3)cc2)ncc1C(F)(F)F)S(C)(=O)=O [Compound 272, N-[3-(([2-({4-[(3-fluoroazetidin-1-yl)carbonyl]phenyl}amino)-5-(trifluoromethyl)pyrimidin-4-yl]amino}methyl)pyridin-2-yl]-N-methylmethane-sulfonamide] | 2.64 |
| CN(c1ncccc1CNc1nc(Nc2ccc(C(=O)NC[C@@H]3C[C@H]3CO)cc2)ncc1C(F)(F)F)S(C)(=O)=O [Compound 273, N-{[(1R,2R)-2-(hydroxymethyl)cyclopropyl}methyl}-4-({4-[({2-[methyl(methylsulfonyl)amino]pyridin-3-yl}methyl)amino]-5-(trifluoromethyl)pyrimidin-2-yl}amino)benzamide] | 2.69 |
| CN(C)CCN(C)C(=O)c1ccc(Nc2ncc(C(F)(F)F)c(NCc3cccnc3N(C)S(C)(=O)=O)n2)cc1 [Compound 274, N-[2-(dimethylamino)ethyl]-N-methyl-4-({4-[({2-[methyl(methylsulfonyl)amino]pyridin-3-yl}methyl)amino]-5-(trifluoromethyl)pyrimidin-2-yl}amino)benzamide] | 4.66 |
| CN(c1ncccc1CNc1nc(Nc2ccc(C(=O)N3CCC[C@@H](O)C3)cc2)ncc1C(F)(F)F)S(C)(=O)=O [Compound 275, N-{3-[({2-[(4-{[(3R)-3-hydroxypiperidin-1-yl]carbonyl}phenyl)amino]-5-(trifluoromethyl)pyrimidin-4-yl}amino)methyl]pyridin-2-yl}-N-methylmethane-sulfonamide] | 2.36 |
| COCCNC(=O)c1ccc(Nc2ncc(C(F)(F)F)c(NCc3cccnc3N(C)S(C)(=O)=O)n2)cc1 [Compound 276, N-(2-methoxyethyl)-4-({4-[({2-[methyl(methylsulfonyl)amino]pyridin-3-yl}methyl)amino]-5-(trifluoromethyl)pyrimidin-2-yl}amino)benzamide] | 0.6 |
| COCCCN(C)C(=O)c1ccc(Nc2ncc(C(F)(F)F)c(NCc3cccnc3N(C)S(C)(=O)=O)n2)cc1 [Compound 277, N-(3-methoxypropyl)-N-methyl-4-({4-[({2-[methyl(methylsulfonyl)amino]pyridin-3-yl}methyl)arnino]-5-(trifluoromethyl)pyrimidin-2-yl}amino)benzamide] | 2.36 |
| C[C@@H]1COCCN1C(=O)c1ccc(Nc2ncc(C(F)(F)F)c(NCc3cccnc3N(C)S(C)(=O)=O)n2)cc1 [Compound 278, N-methyl-N-{3-(({2-[(4-{[(3R)-3-methylmorpholin-4-yl]carbonyl}phenyl)amino]-5-(trlfluoromethyl)pyrimidin-4-yl}amino)methyl]pyridin-2-yl]methanesulfonamide] | 6.64 |
| CN(C)C1CN(C(=O)c2ccc(Nc3ncc(C(F)(F)F)c(NCc4cccnc4N(C)S(C)(=O)=O)n3)cc2)C1 [Compound 279, N-{3-[({2-[(4-{[3-(dimethylamino)azelidin-1-yl]carbonyl}phenyl)amino]-5-(trifluoromethyl)pyrimidin-4-yl}amino)methyl]pyridin-2-yl}-N-methylmethane-sulfonamide] | 3.97 |
| COc1ccc(Nc2ncc(C(F)(F)F)c(NCc3cccnc3N(C)S(C)(=O)=O)n2)cc1 [Compound 280, N-{3-[({2-[(4-methoxyphenyl)amino]-5-(trifluoromethyl)pyrimidin-4-yl}amino)methyl]pyridin-2-yl}-N-methylmethane-sulfonamide] | 0.6 |
| COc1cccc(Nc2ncc(C(F)(F)F)c(NCc3cccnc3N(C)S(C)(=O)=O)n2)c1 [Compound 281, N-{3-[({2-[(3-methoxyphenyl)amino]-5-(trifluoromethyl)pyrimidin-4-yl}amino)methyl]pyridin-2-yl}-N-methylmethane-sulfonamide] | 0.6 |
| COc1ccc(Nc2ncc(C(F)(F)F)c(NCc3cccnc3N(C)S(C)(=O)=O)n2)cc1OC [Compound 282, N-{3-[({2-[(3,4-dimethoxyphenyl)amino]-5-(trifluoromethyl)pyrimidin-4-yl}amino)methyl]pyridin-2-yl}-N-methylmethane-sulfonamide] | 0.6 |
